Consider one molecule from US7056697B2, “FabK variant” (priority 2000, dated 2006).

The test system of this assay is FabK. As to the kind of experiment: FabK activity assay (crotonoyl-ACP reduction, NADH oxidation monitored at 340 nm). The class given is biochemical, Streptococcus pneumoniae. Conditions: NH4+ at 100 mM; greatest activation. The method, then: FabK catalyses the reduction of enoyl-ACPs with the concommitant oxidation of NADH. Crotonoyl-ACP can be prepared as described below. The reduction of crotonoyl-ACP to butyryl-ACP can be monitored by following the change in absorbance at 340 nm as NADH is oxidised.
Assays were carried out in Costar 3696 half-area plates in a final assay volume of 150 ul on a Spectramax platereader. Substrates, NADH and crotonoyl ACP, were incubated with FabK enzyme in 100 mM N-[2-acetamido]-2 iminodiacetic acid (ADA), pH 6.5, 100 mM NH4Cl, 4% glycerol at 30° C. and the reaction monitored at 340 nm. This assaying can also be performed using crotonyl CoA, NADPH or an NADH analogue as a substrate.

Structures are written as SMILES.

As to `N` [NH4^+], the “activation of the FabK reaction over the reaction with no monovalent cations” value is recorded as “about 300 fold”.
